{"source": "patent US20240317754A1", "about": "(priority 2020, published 2024)", "key": {"SARS-CoV replicon": {"test_system": "SARS-CoV replicon", "assay": "microbe, parasite or virus in culture", "assay_type": "cell-based", "conditions": "for IC50 / inhibition at 10 µM: Severe acute respiratory syndrome coronavirus, HEK-293T, 60 h"}, "SARS-CoV-2 replicon": {"test_system": "SARS-CoV-2 replicon", "assay": "microbe, parasite or virus in culture", "assay_type": "cell-based", "conditions": "HEK293T cells; for inhibition at 10 µM / IC50: Severe acute respiratory syndrome coronavirus 2, HEK-293T, 60 h"}, "SARS-CoV-2 (B.1)": {"test_system": "SARS-CoV-2 (B.1)", "assay": "microbe, parasite or virus in culture", "assay_type": "cell-based"}, "[1]": {"conditions": "as reported by NIH OpenData Portal; species not printed (context non-human primates); cited from earlier work"}, "[2]": {"assay": "PK study in cynomolgus monkeys", "assay_type": "in vivo", "procedure": "Three male cynomolgus monkeys weighing 3-5 kg were used for the pharmacokinetic study. Compound AVT006 was administered intragastrically with the dose of 10 mg/kg on day 1. After administration, the blood samples for plasma were collected from a jugular vein from each monkey over 48 hours. The plasma samples (1 mL) were obtained at predose, and 0.083, 0.25, 0.5, 1, 2, 4, 8, 24 and 48 h postdose. After recovery for three days, compound AVT006 was administered intravenously with a dose of 5 mg/kg at day 5. The blood samples for plasma were collected from a jugular vein from each monkey over 48 hours. 1 mL plasma samples were obtained at predose, and 0.083, 0.25, 0.5, 1, 2, 4, 8, 24 and 48 h postdose. Samples were treated with anticoagulant EDTA-K2 and centrifuged under 2000 g for 10 min at 4° C. The supernatants (plasma) were collected and stored at −65° C. for future analysis. The drug concentration in each sample was tested by Watson LIMS 7.5 SP1 HPLC/MS. The pharmacokinetic parameters were calculated using WinNonlin 6.3 software."}, "MHV-A59": {"test_system": "MHV-A59", "assay": "In vivo efficacy in murine hepatitis virus (MHV-A59) infected BALB/c mice", "from_the_text": "• Mice: SPF-grade male BALB/c mice, 100, weighing 18-22 g. • Operation: The experimental mice were infected with MHV-A59 nasal drops and randomly divided into ten groups (n=10 each).\nThe mice were monitored daily for disease symptoms, including body weight, clinical symptoms, and death, for 14 days. Record the body weight changes of mice in each treatment group after virus infection (FIG. 4A) and survival curves (FIG. 4B). The fluorescence quantitative PCR method was used to determine the virus titer in mouse liver 72 hours after virus infection (FIG. 4C)."}, "SARS-CoV-2": {"test_system": "SARS-CoV-2", "assay": "In vivo efficacy against SARS-CoV-2 in hACE2 humanized mice"}, "[3]": {"conditions": "male, cynomolgus monkey, plasma, IV 5 mg/kg, analyzed ATV006"}}, "note": "Entries after “also recorded” stand apart in the source; their conditions may differ. Like-named read-outs stand apart in the source and are kept apart here.", "data": [{"smiles": "N#C[C@@]1(c2ccc3c(N)ncnn23)O[C@H](CO)[C@@H](O)[C@H]1O", "note": "[GS-441524, reference compound]", "values": [{"measurement": "IC50", "setting": "SARS-CoV replicon", "result": 1100, "unit": "nM"}, {"measurement": "inhibition at 10 µM", "setting": "SARS-CoV replicon", "result": 99.8, "unit": "%"}, {"measurement": "inhibition at 10 µM", "setting": "SARS-CoV-2 replicon", "result": 99.8, "unit": "%"}, {"measurement": "IC50", "setting": "SARS-CoV-2 replicon", "result": 950, "unit": "nM"}, {"measurement": "IC50", "setting": "SARS-CoV-2 (B.1)", "result": 2280, "unit": "nM"}, {"measurement": "bioavailability", "setting": "[1]", "result": 8.3, "unit": "%"}]}, {"smiles": "CC(C)C(=O)OC[C@H]1O[C@@](C#N)(c2ccc3c(N)ncnn23)[C@H](O)[C@@H]1O", "note": "[ATV006, ((2R,3S,4R,5R)-5-(4-aminopyrrolo[2,1-f][1,2,4]triazin-7-yl)-5-cyano-3,4-dihydroxytetrahydrofuran-2-yl)methyl isobutyrate]", "values": [{"measurement": "activity relative to GS-441524", "setting": "SARS-CoV replicon", "result": "twice that of compound GS-441524"}, {"measurement": "IC50", "setting": "SARS-CoV replicon", "result": 570, "unit": "nM"}, {"measurement": "inhibition at 10 µM", "setting": "SARS-CoV replicon", "result": 99.2, "unit": "%"}, {"measurement": "antiviral activity relative to GS-441524", "setting": "SARS-CoV-2 replicon; in words", "result": "lower IC50 values and higher antiviral activity"}, {"measurement": "inhibition of SARS-CoV-2 replicon replication", "setting": "SARS-CoV-2 replicon; in words", "result": "significant inhibitory effects"}, {"measurement": "inhibition at 10 µM", "setting": "SARS-CoV-2 replicon", "result": 98.6, "unit": "%"}, {"measurement": "IC50", "setting": "SARS-CoV-2 replicon", "result": 510, "unit": "nM"}, {"measurement": "IC50", "setting": "SARS-CoV-2 (B.1); Severe acute respiratory syndrome coronavirus 2, Vero C1008, 48 h", "result": 1360, "unit": "nM"}, {"measurement": "metabolism to GS-441524", "setting": "[2]; in words", "result": "quickly metabolized into the active metabolite GS-441524"}, {"measurement": "AUC(0-inf)", "setting": "[2]; [3]", "result": "19.6 ± 5.43", "unit": "ng·h/mL"}, {"measurement": "AUC(0-t)", "setting": "[2]; [3]", "result": "19.4 ± 5.35", "unit": "ng·h/mL"}, {"measurement": "Cmax", "setting": "[2]; [3]", "result": "132 ± 37.4", "unit": "ng/mL"}, {"measurement": "Tmax", "setting": "[2]; [3]", "result": 5, "unit": "min"}, {"measurement": "half-life", "setting": "[2]; [3]", "result": "4.15 ± 0.446", "unit": "min"}, {"measurement": "day after infection on which mice began to die", "setting": "MHV-A59; BALB/c mice, 2 mg/kg IG", "result": 4, "unit": "days"}, {"measurement": "median death rate", "setting": "MHV-A59; BALB/c mice, 2 mg/kg IG", "result": 6, "unit": "days"}, {"measurement": "mortality rate", "setting": "MHV-A59; BALB/c mice, 2 mg/kg IG, by day 10 after infection, vs control group p=0.0291", "result": 100, "unit": "%"}, {"measurement": "survival", "setting": "MHV-A59; BALB/c mice, 2 mg/kg IG, in words, 2 mg/kg", "result": "positive effect in prolonging the survival time of animals; also recorded: increased the survival rate"}, {"measurement": "death and weight loss of mice", "setting": "MHV-A59; BALB/c mice, ATV006 IG at doses except 2 mg/kg (5-50 mg/kg), 14 days, in words", "result": "can avoid the death and weight loss of mice at low doses"}, {"measurement": "antiviral activity in vivo compared with GS-441524 and RDV", "setting": "MHV-A59; BALB/c mice, in words", "result": "better antiviral activity in vivo"}, {"measurement": "replication of the virus in the liver", "setting": "MHV-A59; BALB/c mice, virus titer in liver 72 hours after infection, in words", "result": "significantly inhibit the replication of the virus in the liver"}, {"measurement": "antiviral effect", "setting": "MHV-A59; mice, medium dose 5 mg/kg-50 mg/kg, in words", "result": "excellent antiviral effect in a dose-dependent manner"}, {"measurement": "amount of viral genome (N gene) in lung tissue", "setting": "SARS-CoV-2", "result": "significantly lower than that in the control group"}, {"measurement": "amount of viral subgenome (subgenomic N) in lung tissue", "setting": "SARS-CoV-2", "result": "significantly lower than that in the control group"}]}]}
